These results are taken from PMC3996367, “Profiling of drugs and environmental chemicals for functional impairment of neural crest migration in a novel stem cell-based test battery” (Archives of Toxicology, 2014).

Series [1] deals with migration of hESC-derived neural crest cells (NCC). The series can be described thus: MINC assay (migration inhibition of neural crest cells, UKN2). Conditions: 48 h, in a non-cytotoxic concentration range.
Series [2] relates to rats. Conditions: single oral dose to dams on gestational day 6, Wistar rat; ref Kuriyama et al. (2005); cited from earlier work.
The conditions of series [3]: cited from earlier work; for Geometric mean concentration in maternal serum: ref Eskenazi et al. (2013); for Average concentration in breast milk: ref Gascon et al. (2012).
The subject of series [4] is plasma proteins. Conditions: cited from earlier work.
For series [5] the following is noted: head of Fig. S4 entry; compiled from in vivo/in vitro studies and simulations.
Series [6] deals with whole embryo culture. Set-up: method as in Piersma et al. (2008). Conditions: ref Piersma et al. (2008); cited from earlier work.
The subject of series [7] is embryonic stem cell differentiation. Set-up: method as in de Jong et al. 2009. Conditions: ref de Jong et al. 2009; cited from earlier work.
The test system of series [8] is mESC-derived neural stem cells (mESCn).
For series [9] the following is noted: cited from earlier work; for Clinical conc. (CC; total/maximal plasma concentration): human plasma, literature data mining, ref per-compound studies in Fig. S4; for Plasma concentration range / Plasma concentration, average: ref Laske et al. (2009).
Series [10] has as its system HEK293 cells.
Series [11] concerns hESC-derived neural crest cells (NCC).
For series [12] the following is noted: for Free conc. (FCC; free plasma concentration): calculated from CC and plasma protein binding.
Series [13] deals with zebrafish embryos. Also on record: method as in Hermsen et al. (2012). Conditions: pericardial edema, malformations of head and heart; ref Hermsen et al. (2012); cited from earlier work.
The subject of series [14] is dopaminergic PC12 cells. Set-up: method as in Heusinkveld et al. (2013). Conditions: ref Heusinkveld et al. (2013); cited from earlier work.
Series [15] concerns rat fetuses. Also on record: method as in Machera 1995. Conditions: cleft palate and hydrocephaly as most common malformations; ref Machera 1995; cited from earlier work.
For series [16], the system named is neural embryonic stem cell test (ESTn). Set-up: method as in Theunissen et al. (2012). Conditions: ref Theunissen et al. (2012); cited from earlier work.
The subject of series [17] is rat whole embryo culture. Set-up: method as in Robinson et al. (2012). Conditions: 48 hours, ref Robinson et al. (2012), cited from earlier work.
Series [18] concerns rats. Conditions: single dose, oral gavage, adult male Long-Evans rats; ref Crofton et al. (2011); cited from earlier work.
In series [19] the test system is fetal growth. Set-up: method as in Govarts et al. (2012). Conditions: per 1 µg/l increase in cord serum PCB-153; ref Govarts et al. (2012); cited from earlier work.
Setting [20] is: 50 patients with Alzheimer's disease.

“And” between values parts separate entries of the source, which are not always exact repeats. Equal entries are not always repeated. Where two headings read alike, the source gives them in different places.

Turning to `Brc1ccc(Oc2cc(Br)c(Br)cc2Br)c(Br)c1` [PBDE-99, 2,2′,4,4′,5-pentabromodiphenyl ether], in series [1], the “Effect on NCC migration in concentration-response study” value (“Effect on NCC migration” below) is listed as “concentration-dependent effect”. The “Dose causing hyperactivity and impaired spermatogenesis in offspring” value in series [2] is 0.11 µmol/kg. For the same molecule, in [3] (converted), the “Geometric mean concentration in maternal serum” value was 25 ng/l and 44 pM; the “Average concentration in breast milk” value was 1 ng/l and 1.8 pM. Besides, in series [3], the “Geometric mean concentration in maternal serum” value is reported as 4.5 ng/g and the “Average concentration in breast milk” value is 0.27 ng/g lw.

For `CN(C)CCCN1c2ccccc2Sc2ccc(Cl)cc21` [Chlorpromazine], the “Bound to plasma protein albumin” value in [4] (plasma) is given as “around 85%”.

In series [5], `COCC(=O)O` [Methoxyacetic acid] registered a DT concentration of 7.5 mM. The BMC5 in series [6] is given as 1.6 mM. In addition, the BMC50 in series [7] is listed as 2.4 mM. In addition, the “Estimated human blood concentration” value in [3] (due to permitted occupational EGME exposure, ref Welsch 2005) is “approximately 60 μM”. In series [3] (head of Fig. S4 entry, ref studies in Fig. S4), the Human exposure concentration is 60 µM.

One may read the Cmax as the peak of the concentration-time curve. For the molecule `Nc1ccc(S(=O)(=O)Nc2ncccn2)cc1` [Sulfadiazine], the “Degree of protein binding” value in [4] (human) is recorded as 50%. Also, in series [8] (mouse), the “Highest non-cytotoxic conc. in mESCn” value was above 50.0 µM. Also, in series [9] (human, in vivo), the “Clinical concentration range (average Cmax)” value is listed as 50-110 and the Cmax is 200000 to 440000 nM. Besides, the “Highest non-cytotoxic conc. in HEK293” value in [10] (human) was found to be 100.0 µM. The “Concentration for hit finding in NCC (highest non-cytotoxic concentration in the UKN2 test system)” value in series [11] (human) stood at 50000 nM.

With `C[C@]12CC[C@H](O)CC1=CC[C@@H]1[C@@H]2CC[C@]2(C)C(c3cccnc3)=CC[C@@H]12` [Abiraterone], the “Effect on NCC migration” value in series [1] is listed as “concentration-dependent effect”. For the same molecule, in series [4] (ref Gurav et al. (2012)), the “Bound to plasma proteins” value is above 98.8%. Besides, the “Highest non-cytotoxic conc. in mESCn” value in series [8] (mouse) was 0.97 µM. Moreover, the “Clinical conc. (CC; total/maximal plasma concentration)” value in series [9] is 647.3 nM. For the same molecule, the “Highest non-cytotoxic conc. in HEK293” value in [10] (human) is 2.0 µM. In addition, the “Concentration for hit finding in NCC (highest non-cytotoxic concentration in the UKN2 test system)” value in series [11] (human) was 2000 nM. Further, the “Free conc. (FCC; free plasma concentration)” value in series [12] is given as 7.8 nM.

Take `COC(=O)c1ccc2c(c1)NC(=O)/C2=C(\Nc1ccc(N(C)C(=O)CN2CCN(C)CC2)cc1)c1ccccc1` [Nintedanib/ BIBF 1120, Nintedanib]: the “Clinical conc. (CC; total/maximal plasma concentration)” value in series [9] is given as 74.2 nM. In addition, the “Free conc. (FCC; free plasma concentration)” value in series [12] is reported as 70.8 nM.

Consider `COCCCOc1cc(C[C@@H](C[C@H](N)[C@@H](O)C[C@H](C(=O)NCC(C)(C)C(N)=O)C(C)C)C(C)C)ccc1OC` [Aliskiren], for which, in [4] (moderate, ref Vaidyanathan et al. 2008), the Protein binding was 47-51%. The “Clinical conc. (CC; total/maximal plasma concentration)” value in [9] is 326.5 nM. Besides, the “Free conc. (FCC; free plasma concentration)” value in series [12] is on record as 166 nM.

For `Cc1ccc(NC(=O)c2ccc(CN3CCN(C)CC3)cc2)cc1Nc1nccc(-c2cccnc2)n1` [Imatinib], the “Effect on NCC migration” value in [1] is reported as “concentration-dependent effect”. Moreover, in series [11] (human), the “Concentration for hit finding in NCC (highest non-cytotoxic concentration in the UKN2 test system)” value was 5000 nM.

For `C/C(O)=C(\C#N)C(=O)Nc1ccc(C(F)(F)F)cc1` [Teriflunomide], the “Portion of free teriflunomide” value in series [4] (almost constant, ref not given) is given as 0.5%. In addition, the “Bound to plasma proteins” value in series [4] (primarily to albumin, no unit and ref not given) was above 99.3. In series [9], the “Clinical conc. (CC; total/maximal plasma concentration)” value was 10800 nM. The “Free conc. (FCC; free plasma concentration)” value in series [12] was 54.0 nM.

Turning to `CCC[C@H](NC(=O)[C@@H]1[C@H]2CCC[C@H]2CN1C(=O)[C@@H](NC(=O)[C@@H](NC(=O)c1cnccn1)C1CCCCC1)C(C)(C)C)C(=O)C(=O)NC1CC1` [Telaprevir], in [9], the “Clinical conc. (CC; total/maximal plasma concentration)” value was 5100 nM. Moreover, the “Free conc. (FCC; free plasma concentration)” value in [12] is 1600 nM.

As to Neuregulin, the “Clinical conc. (CC; total/maximal plasma concentration)” value in [9] was 6300 nM.

`O=C(Nc1c(Cl)cncc1Cl)c1ccc(OC(F)F)c(OCC2CC2)c1` [Roflumilast]: the “Clinical conc. (CC; total/maximal plasma concentration)” value in [9] is 18.0 nM. Further, the “Free conc. (FCC; free plasma concentration)” value in series [12] is listed as 0.2 nM.

Regarding `COC1=C2C[C@@H](C)C[C@H](OC)[C@H](O)[C@@H](C)/C=C(\C)[C@H](OC(N)=O)[C@@H](OC)/C=C\C=C(/C)C(=O)NC(=CC1=O)C2=O` [Geldanamycin], the “Effect on NCC migration” value in series [1] is recorded as “concentration-dependent effect”. Besides, the “Clinical conc. (CC; total/maximal plasma concentration)” value in series [9] was 800 nM.

`CC(C1CC1)C(O)(Cn1cncn1)c1ccc(Cl)cc1` (stereo not drawn) [Cyproconazole]: in series [5], the DT concentration is 0.065 to 0.118 mM. Moreover, in series [13], the “Concentration increasing teratogenic effects” value was 65000 nM. In addition, in [14], the “Inhibitory concentration on depolarization-evoked intracellular calcium concentration” value is 65 µM. Moreover, the “Effect on NCC migration” value in series [1] was “concentration-dependent effect”. Also, in [15], the “Suggested NOEL” value was 20 mg/kg. The “Concentration reducing cell viability to 80%” value in series [16] is 117600 nM. Besides, the Malformations is 50% in series [17] (1 mM) and 100% in series [17] (1.7 mM).

As for `CC(C)(C)C(O)C(Oc1ccc(Cl)cc1)n1cncn1` (stereo not drawn) [triadimenol], the “Dose causing transient CNS toxicity (hyperactivity, stereotyped behavior)” value in [18] is on record as 50 mg/kg.

Regarding `O=C(NC[C@H]1CN(c2ccc(N3CCOCC3=O)cc2)C(=O)O1)c1ccc(Cl)s1` [Rivaroxaban], in series [4] (PBPK model study, ref Grillo et al. (2012)), the “Unbound fraction in plasma” value was 6%. The “Clinical conc. (CC; total/maximal plasma concentration)” value in series [9] is reported as 689.6 nM. The “Free conc. (FCC; free plasma concentration)” value in series [12] is 41.4 nM.

With Erythropoietin, in series [9], the “Clinical conc. (CC; total/maximal plasma concentration)” value is reported as 0.3 nM.

For `CC[C@H](C)[C@@H]1NC(=O)[C@H](Cc2ccc(O)cc2)NC(=O)[C@@H](N)CSSC[C@@H](C(=O)N2CCC[C@H]2C(=O)N[C@@H](CC(C)C)C(=O)NCC(N)=O)NC(=O)[C@H](CC(N)=O)NC(=O)[C@H](CCC(N)=O)NC1=O` [Oxytocin], the “Binding state in plasma” value in [4] (ref Fabian et al. (1969)) is reported as “unbound”. In [8] (48 h), the “Highest non-cytotoxic conc. in mESCn” value was above 100.0 µM. In addition, the “Clinical conc. (CC; total/maximal plasma concentration)” value in series [9] is reported as 2.0 nM. In addition, the “Highest non-cytotoxic conc. in HEK293” value in [10] (48 h) is above 0.1 µM. Besides, in series [11] (48 h), the “Concentration for hit finding in NCC (highest non-cytotoxic concentration in the UKN2 test system)” value is 100 nM. In addition, the “Free conc. (FCC; free plasma concentration)” value in series [12] was 2.0 nM.

With `CCCc1nn(C)c2c(=O)[nH]c(-c3cc(S(=O)(=O)N4CCN(C)CC4)ccc3OCC)nc12` [Sildenafil], in [4] (ref Purvis et al. (2002)), the Plasma protein binding result is recorded as “approximately 95%”. The “Free conc. (FCC; free plasma concentration)” value in series [12] was 11.0 nM.

For the molecule `N[C@@H](CC(=O)N1CCn2c(nnc2C(F)(F)F)C1)Cc1cc(F)c(F)cc1F` [Sitagliptin], in series [4] (ref Herman et al. (2006a)), the “Binding to plasma proteins” value is recorded as 38%. The “Clinical conc. (CC; total/maximal plasma concentration)” value in series [9] was 1900 nM. The “Free conc. (FCC; free plasma concentration)” value in [12] is 1200 nM.

For `Clc1cc(Cl)c(-c2cc(Cl)c(Cl)cc2Cl)cc1Cl` [PCB-153], the DT concentration in [5] was 3.88e-07 mM. Further, in series [1], the “Effect on NCC migration” value is “concentration-dependent effect”. Besides, in [19], the “Reduction of birth weight” value was 150 g. Also, in series [3] (cohort of 7990 women, ref Govarts et al. (2012)), the “Median cord serum concentration” value is 140 ng/l and 388 pM. Also, in series [3] (ref Covaci et al. (2002)), the Maternal serum concentration is 670 ± 350 pg/mL.

B1: granulocyte colony-stimulating factor (protein, UniProt P09919 31-207, looked up)
Granulocyte …: TPLGPASSLPQSFLLKCLEQVRKIQGDGAALQEKLVSECATYKLCHPEELVLLGHSLGIPWAPLSSCPSQALQLAGCLSQLHSGLFLYQGLLQALEGISPELGPTLDTLQLDVADFATTIWQQMEELGMAPALQPTQGAMPAFASAFQRRAGGVLVASHLQSFLEVSYRVLRHLAQP
In the case of B1, in series [9] (50 healthy controls), the Plasma concentration range is 5 to 80 pg/mL and the “Plasma concentration, average” value is given as ~ 28 pg/ml. In series [9] (setting [20]), the Plasma concentration range is 10 to 40 pg/mL and the “Plasma concentration, average” value was ~ 20 pg/ml. Also, in series [9], the “Clinical conc. (CC; total/maximal plasma concentration)” value is 0.0013 nM. Also, the Clinically relevant concentration in series [12] (calculated from Laske et al. (2009) data) is 25 pg/mL.
